Key:
[1] = tested on: mitochondria and/or endoplasmic reticulum; assay: Partitioning of dye into subcellular organelles; type: cell-based
From the text: (§1) More generally, IR-786 may be used for non-radioactive imaging of areas of ischemia in the living heart, or other visualization of the viability of other tissues.

[2] = Imaging of blood flow in the heart of a living laboratory rat after thoracotomy; type: in vivo
From the text: as §1

[3] = In vivo early half-life of dye in blood; details: small molecule form
From the text: This permits multiple injections during a single procedure.

[4] = Solubility of dye in blood; details: small molecule form

| in vivo early half-life [3] | solubility in blood [4] | SMILES | partitioning into mitochondria and/or endoplasmic reticulum [1] | imaging of blood flow in the heart [2] |
| --- | --- | --- | --- | --- |
|  |  | CN1C(=CC=C2CCCC(C=CC3=[N+](C)c4ccccc4C3(C)C)=C2Cl)C(C)(C)c2ccccc21.[O-][Cl+3]([O-])([O-])[O-] [IR-786] | partitions efficiently into mitochondria and/or endoplasmic reticulum in a concentration-dependent manner | successfully applied |
| shorter half-life | somewhat less soluble in blood | CC1(C)C(/C=C/C=C/C=C/C=C2\N(CCCCS(=O)(=O)O)c3ccc4ccccc4c3C2(C)C)=[N+](CCCCS(=O)(=O)[O-])c2ccc3ccccc3c21 [Indocyanine green, indocyanine green] |  |  |

Source: patent US9326666B2, “Multi-channel medical imaging system” (Beth Israel Deaconess Medical Center, priority 2002, dated 2016)
